Legend:
[1] = target: T1, Isoleucine--tRNA ligase, cytoplasmic (Homo sapiens, UniProt P41252); assay: Inhibition of IleRS
T1 sequence (P41252 whole entry): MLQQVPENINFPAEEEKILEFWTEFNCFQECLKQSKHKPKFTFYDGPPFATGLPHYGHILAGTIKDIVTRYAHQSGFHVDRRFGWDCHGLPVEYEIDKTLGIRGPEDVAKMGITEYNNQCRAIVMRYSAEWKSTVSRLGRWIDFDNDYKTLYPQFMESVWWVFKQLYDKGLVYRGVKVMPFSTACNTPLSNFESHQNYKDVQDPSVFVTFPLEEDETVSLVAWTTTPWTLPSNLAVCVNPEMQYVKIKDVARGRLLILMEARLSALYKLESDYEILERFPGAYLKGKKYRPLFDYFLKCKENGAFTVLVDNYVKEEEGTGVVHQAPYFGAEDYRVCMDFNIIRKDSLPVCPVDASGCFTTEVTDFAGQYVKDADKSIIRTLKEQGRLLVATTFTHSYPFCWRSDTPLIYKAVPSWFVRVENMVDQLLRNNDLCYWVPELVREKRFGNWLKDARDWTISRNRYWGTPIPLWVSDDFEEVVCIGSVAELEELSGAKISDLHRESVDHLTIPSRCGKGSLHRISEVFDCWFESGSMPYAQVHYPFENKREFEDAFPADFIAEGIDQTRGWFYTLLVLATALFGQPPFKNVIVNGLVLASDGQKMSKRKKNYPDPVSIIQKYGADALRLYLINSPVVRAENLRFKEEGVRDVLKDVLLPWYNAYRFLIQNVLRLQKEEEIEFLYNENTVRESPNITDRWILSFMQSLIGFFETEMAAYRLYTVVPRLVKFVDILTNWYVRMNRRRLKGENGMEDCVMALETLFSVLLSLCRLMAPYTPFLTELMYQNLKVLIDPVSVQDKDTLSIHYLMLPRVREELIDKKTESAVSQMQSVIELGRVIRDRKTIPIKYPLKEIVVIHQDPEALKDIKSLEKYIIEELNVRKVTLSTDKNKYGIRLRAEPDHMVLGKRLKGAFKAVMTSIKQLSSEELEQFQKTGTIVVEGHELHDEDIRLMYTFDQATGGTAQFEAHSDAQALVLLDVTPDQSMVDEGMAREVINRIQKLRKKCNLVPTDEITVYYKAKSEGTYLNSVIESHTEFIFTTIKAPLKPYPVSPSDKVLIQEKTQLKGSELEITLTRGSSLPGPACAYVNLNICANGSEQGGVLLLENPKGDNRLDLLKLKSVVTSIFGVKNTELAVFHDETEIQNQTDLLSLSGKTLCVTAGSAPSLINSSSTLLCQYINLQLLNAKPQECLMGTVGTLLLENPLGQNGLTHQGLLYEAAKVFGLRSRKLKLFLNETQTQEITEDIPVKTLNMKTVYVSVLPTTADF

NRK [2] = assay: Effect on morphological reversion in src transformed NRK cells at 100 ug/mL; type: functional; settings: Rattus norvegicus
NRK [3] = assay: Effect on morphological reversion in src transformed NRK cells at 30 ug/mL; type: functional; settings: Rattus norvegicus
NRK [4] = assay: Effect on morphological reversion in src transformed NRK cells at 10 ug/mL; type: functional; settings: Rattus norvegicus
NRK [5] = assay: Effect on morphological reversion in src transformed NRK cells at 3 ug/mL; type: functional; settings: Rattus norvegicus
NRK [6] = assay: Effect on morphological reversion in src transformed NRK cells at 1 ug/mL; type: functional; settings: Rattus norvegicus
Osteoclast = assay: Induction of apoptosis in mouse osteoclasts; type: functional

| SMILES | IC50 [1] [nM] | inhibition at 100 µg/mL (NRK [2]) [%] | inhibition at 30 µg/mL (NRK [3]) [%] | inhibition at 10 µg/mL (NRK [4]) [%] | inhibition at 3 µg/mL (NRK [5]) [%] | inhibition at 1 µg/mL (NRK [6]) [%] | Activity (Osteoclast) [µg/mL] |
| --- | --- | --- | --- | --- | --- | --- | --- |
| CCCC[C@@]1(OC(=O)CCC(=O)O)CC[C@]2(CC[C@H](C)[C@@H](C/C=C(C)/C=C/[C@H](O)[C@@H](C)/C=C/C(=O)OC)O2)O[C@H]1/C=C/C(C)=C/C(=O)O | 313 | > 80 | > 80 | > 80 | 20 | < 10 | 2 |
| CCCC[C@@]1(OC(=O)CCC(=O)O)CC[C@]2(CC[C@H](C)[C@@H](C/C=C(C)/C=C/C(=O)O)O2)O[C@H]1/C=C/C(C)=C/C(=O)O | > 1730 | < 10 | < 10 | < 10 | < 10 |  |  |
| CCCC[C@@]1(OC(=O)CCC(=O)OC)CC[C@]2(CC[C@H](C)[C@@H](C/C=C(C)/C=C/[C@H](O)[C@@H](C)/C=C/C(=O)O)O2)O[C@H]1/C=C/C(C)=C/C(=O)O | 434 | > 80 | > 80 | > 80 | > 80 | 10 | 2.5 |
| CCCC[C@@]1(OC(=O)CCC(=O)O)CC[C@]2(CC[C@H](C)[C@@H](CCO)O2)O[C@H]1/C=C/C(C)=C/C(=O)O | > 2010 | < 10 | < 10 | < 10 | < 10 |  |  |
| CCCC[C@@]1(OC(=O)CCC(=O)O)CC[C@]2(CC[C@H](C)[C@@H](C/C=C(\C)COC(=O)CCC(=O)O)O2)O[C@H]1/C=C/C(C)=C/C(=O)O | > 1570 | < 10 | < 10 | < 10 | < 10 |  | >15 |
| CCCC[C@@]1(OC(=O)CCC(=O)O)CC[C@]2(CC[C@H](C)[C@@H](C/C=C(C)/C=C/[C@H](O[Si](C)(C)C(C)(C)C)[C@@H](C)/C=C/C(=O)O)O2)O[C@H]1/C=C/C(C)=C/C(=O)O | > 1290 | < 10 |  |  |  |  | 5.9 |
| CCCC[C@@]1(OC)CC[C@]2(CC[C@H](C)[C@@H](C/C=C(C)/C=C/[C@H](O)[C@@H](C)/C=C/C(=O)O)O2)O[C@H]1/C=C/C(C)=C/C(=O)O | 101 | > 80 | > 80 | 20 |  |  |  |
| CC(/C=C/[C@H](O)[C@@H](C)/C=C/C(=O)O)=C\C[C@H]1O[C@@]2(CC[C@H](C)[C@H](/C=C/C(C)=C/C(=O)O)O2)CC[C@@H]1C [SPIROFUNGIN A] | 1120 | > 80 | 20 | 10 | < 10 |  | >30 |
| CCCC[C@@]1(OC(=O)CCC(=O)O)CC[C@]2(CC[C@H](C)[C@@H](C/C=C(C)/C=C/[C@@H](O)[C@@H](C)/C=C/C(=O)O)O2)O[C@H]1/C=C/C(C)=C/C(=O)O [5-EPIREVEROMYCIN A] | 572 | < 10 | < 10 | < 10 | < 10 |  | 21.5 |
| CCCC[C@@]1(OC(=O)CCC(=O)O)CC[C@]2(CC[C@H](C)[C@@H](C/C=C(C)/C=C/[C@H](O)[C@@H](C)CCC(=O)O)O2)O[C@H]1/C=C/C(C)=C/C(=O)O [2,3-DIHYDROREVEROMYCIN A] | 17.5 | > 80 | 50 | 20 | 10 |  | 0.22 |
| CCCC[C@]1([C@H](/C=C/C(C)=C/C(=O)O)OC(=O)CCC(=O)O)CC[C@]2(CC[C@H](C)[C@@H](C/C=C(C)/C=C/[C@H](O)[C@@H](C)/C=C/C(=O)O)O2)O1 [REVEROMYCIN B] | > 1510 | < 10 |  |  | < 10 |  | >15 |
| CCCC[C@@]1(OCSC)CC[C@]2(CC[C@H](C)[C@@H](C/C=C(C)/C=C/[C@H](O)[C@@H](C)/C=C/C(=O)O)O2)O[C@H]1/C=C/C(C)=C/C(=O)O | 801 | > 80 | 20 | < 10 |  |  | 9.6 |
| CCCC[C@@]1(O)CC[C@]2(CC[C@H](C)[C@@H](C/C=C(C)/C=C/[C@H](O)[C@@H](C)/C=C/C(=O)O)O2)O[C@H]1/C=C/C(C)=C/C(=O)O | 169 | < 10 |  |  |  |  | 11.5 |
| CC(/C=C/[C@H](O)[C@@H](C)/C=C/C(=O)O)=C\C[C@H]1O[C@]2(CC[C@H](C)[C@H](/C=C/C(C)=C/C(=O)O)O2)CC[C@@H]1C [SPIROFUNGIN B] | > 1990 | < 10 | < 10 | < 10 | < 10 |  | >30 |
| CCCC[C@@]1(OC(=O)CCC(=O)O)CC[C@]2(CC[C@H](C)[C@@H](C/C=C(\C)CO)O2)O[C@H]1/C=C/C(C)=C/C(=O)O | > 1860 | < 10 | < 10 | < 10 | < 10 |  |  |
| CCCC[C@@]1(OC(=O)CCC(=O)O)CC[C@]2(CC[C@H](C)[C@@H](C/C=C(C)/C=C/CO)O2)O[C@H]1/C=C/C(C)=C/C(=O)O | 996 | < 10 | < 10 | < 10 | < 10 |  |  |
| CCCC[C@@]1(OC(=O)CCC(=O)O)CC[C@]2(CC[C@H](C)[C@@H](C/C=C(C)/C=C/[C@H](OC(C)=O)[C@@H](C)/C=C/C(=O)O)O2)O[C@H]1/C=C/C(C)=C/C(=O)O | > 1420 | > 80 | > 80 | 50 | < 10 | < 10 | 0.46 |
| CCCC[C@@]1(OC(=O)CCC(=O)O)CC[C@]2(CC[C@H](C)[C@@H](C/C=C(C)/C=C/[C@@H](O)[C@@H](C)CCC(=O)O)O2)O[C@H]1/C=C/C(C)=C/C(=O)O [2,3-DIHYDRO-5-EPIREVEROMYCIN A] | 88 | 50 | < 10 | < 10 | < 10 |  | 0.82 |
| CCCC[C@@]1(OC(=O)CCC(=O)O)CC[C@]2(CC[C@H](C)[C@@H](C/C=C(C)/C=C/[C@H](OC)[C@@H](C)/C=C/C(=O)O)O2)O[C@H]1/C=C/C(C)=C/C(=O)O | 554 | < 10 |  |  | < 10 |  | >15 |

Source: ChEMBL document CHEMBL1157437, “Synthesis and biological activities of reveromycin A and spirofungin A derivatives” (Bioorg Med Chem Lett, 2008)
